Laboratory results from patent US6852719B2, “Glucocorticoid receptor modulators” (Pfizer Inc., priority 2000, dated 2005).

Columns and labels:
[1] = system: MMP-1 production in SW1353 human chondrosarcoma cells; test: glucocorticoid inhibition of IL-1 induced MMP-1 production in human chondrosarcoma cells; type: cell-based; conditions: 20 ng/ml IL-1 beta, 72 hours after IL-1 addition, ELISA, read-out: IC50, inhibition of MMP1 expression
Description: (§1) This assay, the glucocorticoid inhibition of IL-1 (Interleukin-1) induced MMP-1 (Matrix Metalloproteinase-1) and IL-8 (Interleukin-8) production in human chondrosarcoma cells, is conducted as follows: SW1353 human chondrosarcoma cells (obtained from ATCC) from passage 12 through passage 19 are used in a 96 well format assay. Cells are plated at confluence into 96 well plates in DMEM (Dulbecco's Modified Eagle Medium) with 10% fetal bovine serum and incubated at 37° C., 5% CO2. After 24 hours, serum containing media is removed and replaced with 200 ul/well DMEM containing 1 mg/L insulin, 2 g/L lactalbumin hydrosylate, and 0.5 mg/L ascorbic acid and returned to incubation at 37° C., 5% CO2. […] IL-8 production is assessed using the Quantikine human IL-8 ELISA kit from R & D Systems (D8050) on samples diluted 60-fold in RD5P Calibrator Diluent, following the manufacturer's protocol. The percent of the average IL-1 control is determined for the average of each of the triplicate samples following subtraction of the average signal from untreated cells. IC50's are determined from log linear plots of the percent of control versus the concentration of inhibitor. […] MMP-1 production is assessed via the Bio-Trak MMP-1 ELISA kit from Amersham (RPN2610) on 100 ul of neat sample following the manufacturer's protocol. […]

[2] = system: IL-8 production in SW1353 human chondrosarcoma cells; test: glucocorticoid inhibition of IL-1 induced IL-8 production in human chondrosarcoma cells; type: cell-based; conditions: 20 ng/ml IL-1 beta, 24 hours after IL-1 addition, ELISA, read-out: IC50, inhibition of IL-8 expression
Description: as §1

SMILES: C[C@@H]1C[C@H]2[C@@H]3CCC4=CC(=O)C=C[C@]4(C)[C@@]3(F)[C@@H](O)C[C@]2(C)[C@@]1(O)C(=O)CO [Dexamethasone, (11β, 16α)-9-fluoro-11,17,21-trihydroxy-16-methylpregna-1,4-diene-3,20-dione]
- IC50 [1]: 5 nM
- IC50 [2]: 5 nM
